Broadly, the inhibition is the percentage by which the read-out fell short of the control. Broadly, the Ki is a dissociation constant, usually derived from enzyme kinetics or from competition with a known ligand.

Consider eight compounds from paper PMC6008489 (Bioorganic & Medicinal Chemistry, 2018).

One experiment deals with T1, PKD2 (Homo sapiens, UniProt Q9BZL6).
T1 construct: purchased Perkin Elmer (ProfilerPro assay kit 1)
T1 sequence (Q9BZL6 1-878): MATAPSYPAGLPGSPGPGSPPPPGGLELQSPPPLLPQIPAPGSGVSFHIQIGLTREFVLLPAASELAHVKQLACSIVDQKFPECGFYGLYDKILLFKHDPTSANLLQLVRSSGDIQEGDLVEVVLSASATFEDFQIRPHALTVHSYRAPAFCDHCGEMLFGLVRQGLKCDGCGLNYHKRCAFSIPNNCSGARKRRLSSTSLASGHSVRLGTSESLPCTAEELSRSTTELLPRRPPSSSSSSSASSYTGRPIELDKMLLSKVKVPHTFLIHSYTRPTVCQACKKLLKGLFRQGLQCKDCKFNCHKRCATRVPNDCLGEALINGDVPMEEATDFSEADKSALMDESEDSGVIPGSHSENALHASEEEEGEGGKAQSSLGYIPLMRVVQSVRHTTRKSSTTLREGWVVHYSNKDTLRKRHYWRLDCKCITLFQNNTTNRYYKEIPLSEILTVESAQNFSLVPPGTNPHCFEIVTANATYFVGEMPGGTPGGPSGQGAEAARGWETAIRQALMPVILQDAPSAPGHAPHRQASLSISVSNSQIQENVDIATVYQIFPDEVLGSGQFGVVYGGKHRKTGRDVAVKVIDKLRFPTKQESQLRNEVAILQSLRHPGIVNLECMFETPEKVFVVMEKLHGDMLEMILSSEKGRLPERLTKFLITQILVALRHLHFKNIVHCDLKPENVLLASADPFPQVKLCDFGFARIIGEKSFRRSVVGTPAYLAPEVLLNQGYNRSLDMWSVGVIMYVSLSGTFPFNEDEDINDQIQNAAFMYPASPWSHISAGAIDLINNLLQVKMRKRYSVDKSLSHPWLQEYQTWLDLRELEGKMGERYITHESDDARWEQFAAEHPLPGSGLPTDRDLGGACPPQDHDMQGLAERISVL
Nature of the experiment: 26-kinase panel mobility shift assay, single concentration. The experiment is classed as biochemical. The conditions noted are these: read-out: % Inhibition PKD2.

A further experiment addresses T2, PKA (Homo sapiens, UniProt P17612).
T2 construct: purchased Perkin Elmer (ProfilerPro assay kit 1)
The experiment is described as above. It counts as biochemical. The conditions noted are these: read-out: % Inhibition PKA.

The target in another experiment is Aurora B (Homo sapiens, UniProt Q96GD4). It counts as biochemical. The conditions noted are these: for Ki: calculated from mean IC50 using the Cheng-Prusoff equation, read-out: AurB Ki; for AurB ligand efficiency (LE): from Ki.
Chain of Aurora B (Q96GD4 whole entry): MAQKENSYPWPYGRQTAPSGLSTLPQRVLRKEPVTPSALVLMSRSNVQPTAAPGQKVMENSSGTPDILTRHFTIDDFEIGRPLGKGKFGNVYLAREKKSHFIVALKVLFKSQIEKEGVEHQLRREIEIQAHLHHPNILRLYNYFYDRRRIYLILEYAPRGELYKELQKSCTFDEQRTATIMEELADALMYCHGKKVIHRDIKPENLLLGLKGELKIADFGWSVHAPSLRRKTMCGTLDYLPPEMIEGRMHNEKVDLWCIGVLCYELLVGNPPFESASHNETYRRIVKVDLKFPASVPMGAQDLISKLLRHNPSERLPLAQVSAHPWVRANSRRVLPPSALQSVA
The next experiment concerns the target T3, MAPKAPK2 (Homo sapiens, UniProt P49137).
T3 construct: purchased Perkin Elmer (ProfilerPro assay kit 1)
Nature of the experiment: 26-kinase panel mobility shift assay, single concentration. The conditions noted are these: read-out: % Inhibition MAPKAPK2. It counts as biochemical.

In another experiment the target is T4, MSK1 (Homo sapiens, UniProt O75582).
T4 construct: purchased Perkin Elmer (ProfilerPro assay kit 1)
T4 sequence (O75582 whole entry): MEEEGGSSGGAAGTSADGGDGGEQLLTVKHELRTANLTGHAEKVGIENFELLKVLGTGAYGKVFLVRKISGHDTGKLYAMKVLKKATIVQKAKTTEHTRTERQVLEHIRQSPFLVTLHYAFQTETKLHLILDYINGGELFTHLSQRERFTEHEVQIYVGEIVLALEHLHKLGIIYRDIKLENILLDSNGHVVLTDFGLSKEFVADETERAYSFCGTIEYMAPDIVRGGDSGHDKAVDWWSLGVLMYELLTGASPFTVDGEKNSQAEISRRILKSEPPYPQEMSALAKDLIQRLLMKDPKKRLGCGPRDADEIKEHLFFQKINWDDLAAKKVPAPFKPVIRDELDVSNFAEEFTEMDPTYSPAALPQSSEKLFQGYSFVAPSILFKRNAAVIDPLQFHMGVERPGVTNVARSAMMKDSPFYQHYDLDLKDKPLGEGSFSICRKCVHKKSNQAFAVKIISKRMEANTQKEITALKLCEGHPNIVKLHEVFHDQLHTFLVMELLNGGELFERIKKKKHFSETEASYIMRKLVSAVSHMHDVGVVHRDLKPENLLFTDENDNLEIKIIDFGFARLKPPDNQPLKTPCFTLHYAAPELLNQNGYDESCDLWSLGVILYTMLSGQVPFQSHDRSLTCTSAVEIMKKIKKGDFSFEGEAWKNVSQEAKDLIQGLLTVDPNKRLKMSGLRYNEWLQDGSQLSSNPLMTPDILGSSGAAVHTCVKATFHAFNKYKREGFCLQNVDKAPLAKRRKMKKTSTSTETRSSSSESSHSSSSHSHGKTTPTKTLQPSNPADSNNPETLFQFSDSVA
The experiment is described as above. It counts as biochemical. The following applies: read-out: % Inhibition MSK1.

In another experiment the target is AurB (Homo sapiens, UniProt Q96GD4). The experiment is described as above. The conditions noted are these: read-out: % Inhibition AurB. It counts as biochemical.
Chain of AurB (Q96GD4 whole entry): as the sequence (Q96GD4 whole entry) above
A further experiment addresses T5, AKT2 (Homo sapiens, UniProt P31751).
T5 construct: purchased Perkin Elmer ProfilerPro assay kit 1
The description is as above. The conditions noted are these: read-out: % Inhibition AKT2. The experiment is classed as biochemical.

In another experiment the target is T6, FYN (Homo sapiens, UniProt P06241).
T6 construct: purchased Perkin Elmer (ProfilerPro assay kit 1)
T6 sequence (P06241 whole entry): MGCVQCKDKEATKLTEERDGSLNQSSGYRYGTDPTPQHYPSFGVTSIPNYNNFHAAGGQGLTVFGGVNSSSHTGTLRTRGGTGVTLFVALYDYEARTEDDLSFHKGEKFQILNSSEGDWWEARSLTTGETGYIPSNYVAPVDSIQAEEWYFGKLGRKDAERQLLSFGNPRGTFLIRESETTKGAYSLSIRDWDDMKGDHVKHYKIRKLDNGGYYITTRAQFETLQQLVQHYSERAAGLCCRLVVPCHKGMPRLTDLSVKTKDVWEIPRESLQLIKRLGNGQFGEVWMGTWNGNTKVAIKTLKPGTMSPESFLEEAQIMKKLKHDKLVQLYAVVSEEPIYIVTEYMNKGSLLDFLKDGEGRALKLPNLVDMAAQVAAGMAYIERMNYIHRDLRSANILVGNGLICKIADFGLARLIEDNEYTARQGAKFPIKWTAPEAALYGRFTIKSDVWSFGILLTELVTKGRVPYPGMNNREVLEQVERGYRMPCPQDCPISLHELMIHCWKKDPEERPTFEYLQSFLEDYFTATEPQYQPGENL
The experiment is described as above. The conditions noted are these: read-out: % Inhibition FYN. It counts as biochemical.

Experiment [1] concerns the target T7, MPS1 (Homo sapiens, UniProt P33981).
T7 sequence (P33981 1-857): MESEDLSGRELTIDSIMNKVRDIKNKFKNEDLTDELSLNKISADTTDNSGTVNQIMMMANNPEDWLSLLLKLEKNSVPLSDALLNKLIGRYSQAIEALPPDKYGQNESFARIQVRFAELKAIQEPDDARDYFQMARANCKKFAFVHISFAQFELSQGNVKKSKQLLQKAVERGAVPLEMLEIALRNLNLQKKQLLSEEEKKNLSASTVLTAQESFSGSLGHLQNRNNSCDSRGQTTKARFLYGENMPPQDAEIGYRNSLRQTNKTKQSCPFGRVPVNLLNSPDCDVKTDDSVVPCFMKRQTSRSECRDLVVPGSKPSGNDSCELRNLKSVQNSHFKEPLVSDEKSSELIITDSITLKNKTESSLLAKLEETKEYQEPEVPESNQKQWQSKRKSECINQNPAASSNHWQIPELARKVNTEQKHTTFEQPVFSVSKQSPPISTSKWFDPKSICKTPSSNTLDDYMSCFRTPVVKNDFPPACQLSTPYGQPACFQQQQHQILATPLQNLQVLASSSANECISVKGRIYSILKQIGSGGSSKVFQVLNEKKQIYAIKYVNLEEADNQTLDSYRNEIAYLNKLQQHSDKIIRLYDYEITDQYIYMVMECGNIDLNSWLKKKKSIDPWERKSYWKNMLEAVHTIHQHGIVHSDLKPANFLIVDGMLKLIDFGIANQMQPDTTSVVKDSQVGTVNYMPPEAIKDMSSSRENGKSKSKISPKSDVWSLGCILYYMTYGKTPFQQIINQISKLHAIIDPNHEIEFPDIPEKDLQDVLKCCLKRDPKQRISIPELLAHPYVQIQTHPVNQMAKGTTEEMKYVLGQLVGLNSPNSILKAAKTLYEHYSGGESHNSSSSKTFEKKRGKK
Briefly: biochemical. The conditions noted are these: read-out: % Inhibition MPS1; for inhibition at 30 µM: compound at 30 µM.
Protocol: (§1) In order to test the biochemical activity of our fragment library, a panel of 26 structurally diverse protein kinases was used.
(§2) Screening of 26 kinases using a mobility shift assay
(§3) A mobility shift assay to determine kinase inhibition was carried out using a
(§4) modified version of the ProfilerPro assay kit 1 (Perkin Elmer, Coventry, UK)
(§5) including MPS1 and Aurora B. Each kit contained an enzyme plate, a substrate
(§6) plate, reconstitution buffer, 1 M DTT, protease inhibitor cocktail and termination
(§7) buffer. Test compounds were added as a solution in DMSO.
(§8) peptide phosphorylation assay was carried out as per the manufacturer’s
(§9) instructions. The electrophoretic separation and analysis of the phosphorylated
(§10) and non-phosphorylated peptides was carried out on a 4-sipper chip using a
(§11) LabChip EZReader II (Perkin Elmer). Results were expressed as % inhibition of
(§12) peptide phosphorylation relative to control wells for 0 % (no test compound) and
(§13) 100 % (no ATP) inhibition. The percentage inhibition was calculated using the
(§14) % Inhibition = [1 - (% Conversion Sample / % Conversion 0% Inhibition Control)] x 100

Another experiment concerns the target T8, RSK1 (Homo sapiens, UniProt Q15418).
T8 construct: purchased Perkin Elmer (ProfilerPro assay kit 1)
Briefly: 26-kinase panel mobility shift assay, single concentration. The experiment is classed as biochemical. The conditions noted are these: read-out: % Inhibition RSK1.

Another experiment addresses T9, MET (Homo sapiens, UniProt P08581).
T9 construct: purchased Perkin Elmer (ProfilerPro assay kit 1)
The description is as above. The conditions noted are these: read-out: % Inhibition MET. It counts as biochemical.

Experiment [2] addresses T7, MPS1. It counts as biochemical. The following applies: for Ki: calculated from mean IC50 using the Cheng-Prusoff equation; for MPS1 ligand efficiency (LE): from Ki.
Protocol: (§15) IC50 values were obtained for an expanded version of the fragment library using the previously described mobility shift assay.[44] Subsequently, Ki values were estimated from IC50 values to allow better comparison of the activity against targets which were measured at different substrate concentrations (Supplementary data Table 1).
(§16) IC50 values for MPS1, Aurora A and Aurora B inhibition were determined as previously described,[44] and Ki values were estimated from the mean IC50 values using the Cheng-Prusoff equation.[48]
(§17) Kinase [ATP] (M) [Enzyme] (nM) [Peptide Substrate] (M) MgCl2 (mM)
(§18) For all compounds, IC50 values for MPS1, Aurora A, and Aurora B were determined
(§19) using MPS1 and Aurora A/B mobility shift assays as described previously.1 IC50
(§20) values were calculated from a four-parameter logistic fit of percentage inhibition
(§21) versus concentration (at 8 compound concentrations) using GraphPad Prism 5
(§22) (GraphPad Software, Inc., CA, USA). Mean IC50 values were determined from two
(§23) independent measurements each carried out in duplicate. Ki values were estimated
(§24) from the mean IC50 values using the Cheng-Prusoff equation.
For a further experiment, the target named is T10, Erk2 (Homo sapiens, UniProt P28482).
T10 construct: purchased Perkin Elmer (ProfilerPro assay kit 1)
T10 sequence (P28482 whole entry): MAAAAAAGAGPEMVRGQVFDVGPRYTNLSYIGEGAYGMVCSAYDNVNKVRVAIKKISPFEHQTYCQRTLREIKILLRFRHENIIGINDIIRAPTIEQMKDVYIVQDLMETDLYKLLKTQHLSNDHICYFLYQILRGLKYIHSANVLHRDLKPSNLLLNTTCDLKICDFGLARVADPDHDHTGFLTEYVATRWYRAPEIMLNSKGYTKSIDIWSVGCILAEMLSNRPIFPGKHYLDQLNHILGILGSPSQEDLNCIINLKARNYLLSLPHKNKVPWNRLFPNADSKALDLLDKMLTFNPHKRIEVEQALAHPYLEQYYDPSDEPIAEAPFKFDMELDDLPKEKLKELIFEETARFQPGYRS
Nature of the experiment: 26-kinase panel mobility shift assay, single concentration. It counts as biochemical. The conditions noted are these: read-out: % Inhibition Erk2.

Where two headings read alike, the source gives them in different places.
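Throughout, for AurB Ki: aurora B inhibition measured in a mobility shift assay, underlying mean IC50 taken from two independent duplicate runs at 8 compound concentrations.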
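Throughout, for AurB ligand efficiency (LE): aurora B inhibition measured in a mobility shift assay, underlying mean IC50 taken from two independent duplicate runs at 8 compound concentrations.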

T8 sequence (Q15418 whole entry): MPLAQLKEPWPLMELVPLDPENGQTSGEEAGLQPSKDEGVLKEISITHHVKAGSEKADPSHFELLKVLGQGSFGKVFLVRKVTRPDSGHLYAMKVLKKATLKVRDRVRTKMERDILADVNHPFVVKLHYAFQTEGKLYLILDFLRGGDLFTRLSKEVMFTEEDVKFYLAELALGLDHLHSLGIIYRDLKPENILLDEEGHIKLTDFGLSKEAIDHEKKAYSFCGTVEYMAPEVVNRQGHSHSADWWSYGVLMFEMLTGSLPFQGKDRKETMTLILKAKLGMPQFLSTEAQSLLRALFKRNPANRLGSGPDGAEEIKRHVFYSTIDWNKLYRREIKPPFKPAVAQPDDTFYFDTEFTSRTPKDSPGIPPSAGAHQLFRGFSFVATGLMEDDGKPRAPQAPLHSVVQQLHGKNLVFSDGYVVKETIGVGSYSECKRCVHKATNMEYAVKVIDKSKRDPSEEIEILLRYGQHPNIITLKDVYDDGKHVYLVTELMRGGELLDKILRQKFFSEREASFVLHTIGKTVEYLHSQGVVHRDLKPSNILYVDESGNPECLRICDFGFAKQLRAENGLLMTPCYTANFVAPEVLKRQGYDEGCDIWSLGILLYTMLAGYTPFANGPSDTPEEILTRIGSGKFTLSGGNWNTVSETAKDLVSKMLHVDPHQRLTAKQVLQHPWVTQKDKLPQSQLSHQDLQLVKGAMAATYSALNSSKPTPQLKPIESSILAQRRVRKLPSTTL
T3 sequence (P49137 whole entry): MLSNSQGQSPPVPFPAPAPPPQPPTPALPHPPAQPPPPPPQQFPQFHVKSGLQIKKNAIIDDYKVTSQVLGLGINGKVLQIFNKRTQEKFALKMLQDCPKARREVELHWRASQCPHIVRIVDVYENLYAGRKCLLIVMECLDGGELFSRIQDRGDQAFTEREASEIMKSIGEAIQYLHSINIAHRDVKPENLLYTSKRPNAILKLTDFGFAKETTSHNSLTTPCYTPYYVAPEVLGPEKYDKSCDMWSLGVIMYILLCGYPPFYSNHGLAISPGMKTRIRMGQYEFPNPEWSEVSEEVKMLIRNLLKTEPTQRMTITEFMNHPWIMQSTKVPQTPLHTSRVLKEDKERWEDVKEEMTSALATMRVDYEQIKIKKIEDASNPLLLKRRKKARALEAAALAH
T5 sequence (P31751 whole entry): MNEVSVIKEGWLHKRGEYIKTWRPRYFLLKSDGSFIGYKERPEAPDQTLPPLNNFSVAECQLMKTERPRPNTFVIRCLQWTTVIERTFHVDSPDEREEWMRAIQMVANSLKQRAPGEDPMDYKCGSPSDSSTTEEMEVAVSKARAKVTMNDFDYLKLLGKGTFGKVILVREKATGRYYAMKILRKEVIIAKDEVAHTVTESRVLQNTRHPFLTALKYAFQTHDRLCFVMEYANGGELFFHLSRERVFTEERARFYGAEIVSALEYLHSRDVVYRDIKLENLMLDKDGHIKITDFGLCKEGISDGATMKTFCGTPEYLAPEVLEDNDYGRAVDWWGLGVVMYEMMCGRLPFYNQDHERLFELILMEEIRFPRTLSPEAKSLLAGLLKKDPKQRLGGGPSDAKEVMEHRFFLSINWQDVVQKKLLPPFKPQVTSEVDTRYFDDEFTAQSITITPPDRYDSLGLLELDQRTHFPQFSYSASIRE
Protocol for AKT2: as §1, §2, §3, §4, §5, §6, §7, §8, §9, §10, §11, §12, §13, §14
Protocol for AurB: Mobility Shift Assay Protocol
as §2, §3, §4, §5, §6, §7, §8, §9, §10, §11, §12, §13, §14
Protocol for Aurora B: as §15, §16, §17, §18, §19, §20, §21, §22, §23, §24
Protocol for Erk2: as §3, §4, §5, §6, §7, §8, §9, §10, §11, §12, §13, §14
Protocol for FYN: as §3, §4, §5, §6, §7, §8, §9, §10, §11, §12, §13, §14
Protocol for MAPKAPK2: as §3, §4, §5, §6, §7, §8, §9, §10, §11, §12, §13, §14
Protocol for MET: as §1
Mobility Shift Assay Protocol
as §2, §3, §4, §5, §6, §7
final concentration. […] The
as §8, §9, §10, §11, §12, §13, §14
Protocol for MSK1: as §1
Mobility Shift Assay Protocol
as §2, §3, §4, §5, §6, §7
final concentration. […] The
as §8, §9, §10, §11, §12, §13, §14
Protocol for PKD2: as §1, §2, §3, §4, §5, §6, §7, §8, §9, §10, §11, §12, §13, §14
Protocol for RSK1: Mobility Shift Assay Protocol
as §2, §3, §4, §5, §6, §7, §8, §9, §10, §11, §12, §13, §14

Turning to `Nc1ccc[nH]c1=O` [Compound 1, 3-aminopyridin-2-one], the inhibition at 100 µM at PKD2 is 10%; on PKA it was 0%; on MAPKAPK2 it was 25%; at MSK1, 26%; at AurB it was 20%; at AKT2, 77%. For the same compound, the inhibition at 100 µM at FYN worked out at 11%; on MPS1 [1] it was 0%; on RSK1, 19%; on MET, 33%; at Erk2, 3%. For the same compound, the Ki on Aurora B was 160 µM; at MPS1 [2], greater than 1000 µM. Moreover, on Aurora B, the “AurB ligand efficiency (LE)” value amounted to 0.64.

Turning to `COc1ncc(-c2ccncc2)cc1N` [Compound 5, 6-Methoxy-3,4′-bipyridin-5-amine], the inhibition at 100 µM at PKD2 is 26%; on PKA, 52%; at MAPKAPK2 it was 19%; at MSK1, 61%; on AurB, 35%; on AKT2 it was 4%. In addition, the inhibition at 100 µM came to 9% on FYN; 41% on MPS1 [1] (compound at 100 µM); 23% on RSK1; 18% at MET; 12% on Erk2. In addition, the results for the Ki on Aurora B and at MPS1 [2] were 63.9 µM and 91.2 µM, respectively. The “AurB ligand efficiency (LE)” value on Aurora B is 0.38. The “MPS1 ligand efficiency (LE)” value on MPS1 [2] is 0.37.

`Cc1nc(O)c(N)cc1-c1ccncc1` [Compound 15, 3-Amino-6-methyl-5-(pyridin-4-yl)pyridin-2-one]: the inhibition at 100 µM at PKD2 was found to be 8%; on PKA, 0%; at MAPKAPK2, 33%; on MSK1 it was 14%; at AurB, 77%; on AKT2, 17%. For the same compound, the inhibition at 100 µM on FYN is 6%; on MPS1 [1] (compound at 100 µM) it was 20%; at RSK1, 17%; on MET, 14%; at Erk2 it was 11%. Besides, the Ki is 25.7 µM on Aurora B and greater than 100 µM at MPS1 [2]. On Aurora B, the “AurB ligand efficiency (LE)” value amounted to 0.42.

Take `O=C(Nc1cc(-c2ccnc(NC3CC3)n2)c[nH]c1=O)c1ccccc1` [Compound 24]: the inhibition at 30 µM stood at 69% on PKD2; 75% on PKA; 96% on MAPKAPK2; 83% on MSK1; 91% at AurB; 91% on AKT2. In addition, the inhibition at 30 µM came out at 93% at FYN; 76% at MPS1 [1]; 98% on RSK1; 65% on MET; 37% at Erk2. Also, the Ki was 3.6 µM at Aurora B and 3.2 µM at MPS1 [2]. The “AurB ligand efficiency (LE)” value at Aurora B came to 0.28. The “MPS1 ligand efficiency (LE)” value on MPS1 [2] is 0.29.

`Cn1cc(-c2c[nH]c(=O)c(N)c2)cn1` [Compound 2, 3-Amino-5-(1-methyl-1H-pyrazol-4-yl)pyridin-2(1H)-one]: the inhibition at 100 µM on PKD2 worked out at 67%; at PKA, 66%; on MAPKAPK2 it was 97%; on MSK1, 95%; at AurB it was 96%; at AKT2, 97%. Moreover, the inhibition at 100 µM on FYN was 34%; on MPS1 [1] (compound at 100 µM), 41%; on RSK1, 89%; at MET, 81%; on Erk2, 68%. For the same compound, the Ki on Aurora B is 3.2 µM; at MPS1 [2] it was 94.7 µM. The “AurB ligand efficiency (LE)” value at Aurora B stood at 0.53. Also, the “MPS1 ligand efficiency (LE)” value at MPS1 [2] worked out at 0.39.

On to `Nc1cc(-c2ccnc3ccccc23)c[nH]c1=O` [Compound 6], for which the inhibition at 100 µM came to 36% at PKD2; 48% at PKA; 32% on MAPKAPK2; 22% at MSK1; 61% on AurB; 9% at AKT2. For the same compound, the inhibition at 100 µM on FYN was found to be 40%; at MPS1 [1] (compound at 100 µM), 69%; at RSK1, 10%; at MET it was 19%; at Erk2, 15%. For the same compound, the Ki was 41.7 µM at Aurora B and 30.2 µM at MPS1 [2]. The “AurB ligand efficiency (LE)” value on Aurora B came out at 0.33. The “MPS1 ligand efficiency (LE)” value at MPS1 [2] is reported as 0.34.

Regarding `O=C(Nc1cc(-c2ccncc2)c[nH]c1=O)c1ccccc1` [Compound 16, N-(2-Oxo-5-(pyridin-4-yl)-1,2-dihydropyridin-3-yl)benzamide], the inhibition at 30 µM on PKD2 turned out to be 30%; on PKA it was 0%; at MAPKAPK2, 29%; at MSK1, 1%; at AurB, 24%; at AKT2 it was 4%. In addition, the inhibition at 30 µM at FYN is 59%; at MPS1 [1], 62%; on RSK1, 19%; at MET, 9%; on Erk2, 5%. The results for the inhibitory constant (Ki) at Aurora B and on MPS1 [2] were 41 µM and 5.4 µM, respectively. The “AurB ligand efficiency (LE)” value on Aurora B came to 0.27. In addition, the “MPS1 ligand efficiency (LE)” value at MPS1 [2] was 0.33. Also, the “fold increase in inhibitory activity against MPS1 relative to compound 3” value on MPS1 [2] (from Ki values, Table 1 and Table 2) is 15 fold.

For the compound `CNc1nccc(-c2c[nH]c(=O)c(N)c2)n1` [Compound 7], the inhibition at 100 µM at PKD2 turned out to be 70%; on PKA, 81%; at MAPKAPK2 it was 79%; on MSK1, 94%; at AurB it was 94%; on AKT2 it was 93%. Besides, the inhibition at 100 µM on FYN was found to be 66%; on MPS1 [1] (compound at 100 µM), 71%; at RSK1, 91%; at MET it was 76%; at Erk2 it was 53%. In addition, the Ki at Aurora B was 15.1 µM; at MPS1 [2], 25.6 µM. Moreover, on Aurora B, the “AurB ligand efficiency (LE)” value stood at 0.41. Besides, the “MPS1 ligand efficiency (LE)” value on MPS1 [2] came to 0.39.
